Source: publication PMC6989399, “A drug library screen identifies Carbenoxolone as novel FOXO inhibitor that overcomes FOXO3-mediated chemoprotection in high-stage neuroblastoma” (Oncogene, 2019)

Assays:
FOXO6-DBD = FOXO6-DBD (Homo sapiens, UniProt A8MYZ6); assay: competitive fluorescence polarization (displacement of IRE-FAM oligonucleotide), […] CBX; type: binding
FOXO3-DBD [1] = target: FOXO3-DBD (Homo sapiens, UniProt O43524); assay: competitive fluorescence polarization (displacement of IRE-FAM oligonucleotide), confirmed by FAM-EMSA; type: binding
FOXO4-DBD = FOXO4-DBD (Homo sapiens, UniProt P98177); assay: competitive fluorescence polarization (displacement of IRE-FAM oligonucleotide), […] CBX; type: binding
FOXO3-DBD [2] = target: T1, FOXO3-DBD (Homo sapiens, UniProt O43524 156-269); assay: EMSA; 1 uM protein, 100 nM DNA; FPA: 200 mM Tris pH 7.5, 100 mM NaCl, 1 mM EDTA (BSA-precoated plates), 30 min RT (15 C, uncoated for FOXO1/3/4/6 comparison); FAM-EMSA: 20 mM Tris pH 7.5, 100; details: protein: recombinant; tags: N-terminal GST; His (GST-His-purified); blunt
FOXO3-DBD [3] = target: T1, FOXO3-DBD; assay: fluorescence polarization; 5 nM IRE-FAM, 1-350 nM protein; FPA: 200 mM Tris pH 7.5, 100 mM NaCl, 1 mM EDTA (BSA-precoated plates), 30 min RT (15 C, uncoated for FOXO1/3/4/6 comparison); FAM-EMSA: 20 mM Tris pH 7.5, 100; details: protein: recombinant; tags: N-terminal GST; His (GST-His-purified); blunt

T1 sequence (O43524 156-269): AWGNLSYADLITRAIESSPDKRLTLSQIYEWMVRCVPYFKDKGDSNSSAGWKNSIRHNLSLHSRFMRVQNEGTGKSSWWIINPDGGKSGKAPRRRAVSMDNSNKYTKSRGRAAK
Chain of FOXO4-DBD (P98177 82-207): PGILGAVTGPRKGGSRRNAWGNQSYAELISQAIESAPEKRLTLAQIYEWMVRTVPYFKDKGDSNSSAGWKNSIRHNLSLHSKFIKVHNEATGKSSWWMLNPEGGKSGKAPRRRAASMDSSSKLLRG
Chain of FOXO3-DBD (Homo sapiens, UniProt O43524) (O43524 156-269): as the sequence (O43524 156-269) above
Chain of FOXO6-DBD (A8MYZ6 87-200): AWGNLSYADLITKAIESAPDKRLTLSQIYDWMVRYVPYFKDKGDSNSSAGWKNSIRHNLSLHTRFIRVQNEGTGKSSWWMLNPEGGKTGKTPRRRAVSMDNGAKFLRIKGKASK

Question: What does the source list for `CC1(C)[C@@H](OC(=O)CCC(=O)O)CC[C@]2(C)[C@H]3C(=O)C=C4[C@@H]5C[C@@](C)(C(=O)O)CC[C@]5(C)CC[C@@]4(C)[C@]3(C)CC[C@@H]12` [CBX, Carbenoxolone]?
Answer: competitive fluorescence polarization (displacement of IRE-FAM oligonucleotide), (FOXO6-DBD): CBX binds in addition to the FOXO3-DBD, also the FOXO1-DBD, the FOXO4-DBD, as well as the FOXO6-DBD; Ki (FOXO3-DBD [1]): 19 µM; competitive fluorescence polarization (displacement of IRE-FAM oligonucleotide), (FOXO4-DBD): CBX binds in addition to the FOXO3-DBD, also the FOXO1-DBD, the FOXO4-DBD, as well as the FOXO6-DBD

B1: FoxP3-FAM (dsDNA)
DNA 1: AGCAAAGTTGTTTTTGATAATG
DNA 2: CATTATCAAAAACAACTTTGCT
Question: Does B1 bind (FOXO3-DBD [2])?
Answer: binds

B2: IRE-FAM (dsDNA)
DNA 1: CTATCAAAACAACGC
DNA 2: GCGTTGTTTTGATAG
Question: How did the Kd (FOXO3-DBD [3]) turn out when B2 was run?
Answer: 0.0534 µM
